Patent publication US6518253B1, “Treatment of viral infections using the L-isomer of ribavirin” (priority 1999, dated 2003)
Like-named read-outs stand apart in the source and are kept apart here.

Tests used:
[1] = Four-week oral toxicity in rats; conditions: oral administration, 180 mg/kg over four weeks
[2] = tested on: cells infected with Influenza A; experiment: Cytotoxicity assay, influenza A test; type: cell-based; conditions: cells of the Influenza A test; read-out: Cytotoxicity (CC50) INFL.A
Method: (§1) In vitro testing for direct antiviral activity of Levovirin™ and Ribavirin against influenza A and B, parainfluenza 1 and 2, and respiratory syncytial virus were performed as described in Huffinan, J. H. et al. Antiviral Chem. and Chemother. 1997, 8: 75-83 and Barnard, D. L. et al. Antiviral Chem. and Chemother 1997, 8: 223-233. Anti-human immunodeficiency virus activity was assessed by the National Cancer Institute using a procedure designed to detect agents acting at any stage of the virus reproductive cycle [Weislow, O. W. et al., J. Natl. Cancer Inst. 1989, 81: 577-586]. Anti-hepatitis B (HBV) activity was monitored by using an assay as described by Marion et al., Hepatology 1987, 7: 724-731. Anti-HIV activity and cytotoxicity for Ribavirin was determined from previous data [McCormick, J. B., Lancet, 1998, II: 1367-1369.

[3] = tested on: Hepatitis B (HBV); type: cell-based; conditions: read-out: Dir.Antiviral activity (EC50) HBV
[4] = tested on: Influenza (INFL) A; type: cell-based; conditions: read-out: Dir.Antiviral activity (EC50) INFL.A
[5] = tested on: cells infected with Influenza B; experiment: Cytotoxicity assay, influenza B test; type: cell-based; conditions: cells of the Influenza B test; read-out: Cytotoxicity (CC50) INFL.B
Method: as §1

[6] = tested on: Parainfluenza (PARA) 3; type: cell-based, Parainfluenza 3; conditions: read-out: Dir.Antiviral activity (EC50) PARA 3
[7] = tested on: cells infected with Parainfluenza 3
[8] = tested on: SEB stimulated T cell expression of the TH1 cytokines IL-2, IFN-γ, and TNF-α; type: cell-based, human
[9] = tested on: Influenza (INFL) B; experiment: microbe, parasite or virus in culture; type: cell-based; conditions: read-out: Dir.Antiviral activity (EC50) INFL.B
[10] = tested on: respiratory syncytial virus (RSV); type: cell-based; conditions: read-out: Dir.Antiviral activity (EC50) RSV
[11] = tested on: Parainfluenza (PARA) 1; type: cell-based, Parainfluenza 1; conditions: read-out: Dir.Antiviral activity (EC50) PARA 1
[12] = tested on: Concanavalin A Induced Hepatitis; experiment: Concanavalin A induced hepatitis, serum ALT; conditions: BALB/c mice, single i.p. dose 20 μg (1 mg/kg) 1 hr prior to i.v. 0.3 mg Con A; serum after 24 hr; PBS control about 1900 U/ml
[13] = tested on: cells infected with Parainfluenza 1
[14] = tested on: cells infected with HBV
[15] = tested on: cells infected with RSV
[16] = tested on: cells infected with HIV; conditions: cells of the HIV test; Ribavirin value from previous data (McCormick, Lancet); read-out: Cytotoxicity (CC50) HIV; cited from earlier work
[17] = Cytotoxicity assay, influenza A test; type: cell-based; conditions: cells infected with Influenza A (cell line not given); cells of the Influenza A test; read-out: Cytotoxicity (CC50) INFL.A
Method: as §1

[18] = Cytotoxicity assay, influenza B test; type: cell-based; conditions: cells infected with Influenza B (cell line not given); cells of the Influenza B test; read-out: Cytotoxicity (CC50) INFL.B
Method: as §1

[19] = rat, in vivo, po, 180 mg/kg

## 1-(5-Deoxy-β-D-ribo-furanosyl)-1,2,4-triazole-3-carboxamide [Ribavirin]
[1]
  Clinical pathology (hemolytic anemia, leukopenia): produced significant hemolytic anemia and leukopenia
[2]
  CC50: 56 µM
[3]
  EC50: > 100 µM
[4]
  EC50: 6.1 µM
[5]
  CC50: > 100 µM
[6]
  EC50: 4 µM
[7]
  CC50: 480 µM
[8]
  IFN-γ, mean percentage of activated control: 131 ± 6 percentage of activated control
  IL-2, mean percentage of activated control: 143 ± 18 percentage of activated control
  TNF-α, mean percentage of activated control: 124 ± 4 percentage of activated control
[9]; Influenza B
  EC50: 1900 nM
[10]
  EC50: 5 µM
[11]
  EC50: 40 µM
[12]
  Con A induced serum ALT level: 969 U/ml
[13]
  CC50: > 1 mM
[14]
  CC50: 53 µM
[15]
  CC50: 100 µM
[16]
  CC50: > 40 µM

## NC(=O)c1ncn([C@H]2O[C@@H](CO)[C@H](O)[C@@H]2O)n1 [Levovirin™, 1-(β-L-ribofuranosyl)-1,2,4-triazole-3-carboxamide]
[17]
  CC50: > 200 µM
[18]
  CC50: > 200 µM
[8]
  IFN-γ, mean percentage of activated control: 122 ± 3 percentage of activated control
  IL-2, mean percentage of activated control: 131 ± 12 percentage of activated control
  TNF-α, mean percentage of activated control: 144 ± 7 percentage of activated control
[9]; Influenza B virus
  EC50: > 200000 nM
[12]
  Con A induced serum ALT level: 954 U/ml
[19]
  Clinical pathology (hemolytic anemia, leukopenia): did not produce any observable clinical pathology
